# Laboratory results published in paper PMC5531531, “A synthetic cationic antimicrobial peptide inhibits inflammatory response and the NLRP3 inflammasome by neutralizing LPS and ATP” (PLoS ONE, 2017).
# No end group written: not given here.
# Tests used:
# [1] = system: PGN-, Pam3CSK4- and CPS-activated RAW 264.7 macrophages; assay: NO generation induced by other bacterial components in RAW 264.7 (Griess reaction); type: cell-based, mouse; settings: 24 h, Fig 1B
# Method: (§1) RAW 264.7 cells (2 × 10^5 in 0.5 ml of medium) were seeded in 24-well plates and then incubated with or without LPS (0.1 μg/ml) in the absence or presence of AMP for 24 h. The effects of AMP on NO production were measured indirectly by analyzing nitrite levels using the Griess reaction as described in detail previously.
# Fig 1 Effects of GW-A2 on the expression levels of inflammatory mediators. (A) RAW 264.7 macrophages were incubated for 30 min with or without GW-A2 or scrambled GW-A2, followed by incubation with or without 0.1 μg/ml of E. coli LPS or Salmonella LPS for 24 h. The levels of NO in the culture medium were measured by the Griess reaction. (B) RAW 264.7 macrophages were incubated for 30 min with or without GW-A2, followed by incubation with or without peptidoglycan (20 μg/ml), Pam3CSK4 (0.2 μg/ml) or capsular polysaccharide (3 μg/ml) for 24 h. The levels of NO in the culture medium were measured by the Griess reaction. (C) RAW 264.7 macrophages were incubated for 30 min with or without GW-A2, followed by incubation with or without 0.1 μg/ml of E. coli LPS for 24 h. The levels of iNOS and COX-2 were assessed by Western blotting and the histograms represent the expression levels compared to the LPS alone group obtained in three different experiments. (D) RAW 264.7 macrophages were incubated for 30 min with or without GW-A2, followed by incubation with or without 0.1 μg/ml of E. coli LPS for 6 h. The mRNA levels of iNOS and COX-2 were assessed by quantitative real-time PCR. (E and F) RAW 264.7 macrophages (E) and human THP-1 macrophages (F) were incubated for 30 min with or without GW-A2, followed by incubation with or without 0.1 μg/ml of E. coli LPS for 24 h. The levels of TNF-α and IL-6 were assayed by ELISA. […] The cell proliferation was measured by AlamarBlue® assay. The data are expressed as the mean ± SD of three independent experiments. *, ** and *** indicate significant differences, representing p < 0.05, p < 0.01 and p < 0.001, respectively compared to stimulation alone. # indicates significant differences, representing p < 0.05 compared to 2 μM of GW-A2 group.
# [2] = system: LPS-induced NO generation in RAW264.7 cells; assay: NO inhibitory assay (Griess reaction), LPS-activated RAW 264.7; type: cell-based, mouse
# Method: as §1
# [3] = system: C57BL/6 mice injected with E. coli LPS; type: in vivo, mouse
# Method: The expression levels of IL-1β, IL-6 and TNF-α in the conditional medium, sera and lavage fluids were measured by ELISA as described in detail previously.
# (§2) The protein expression levels of iNOS, COX-2, ERK1/2, JNK1/2, p38, IκB-α, PKC, caspase-1 and the phosphorylation levels of ERK1/2, JNK1/2, p38, PKC-α, PKC-δ, IκB-α were determined by Western blotting as described in detail previously.
# Experiments were performed on 8-week-old male C57BL/6 mice purchased from the National Laboratory Animal Center (Taipei, Taiwan). The mice were randomized into the following four groups: Group I: control, intraperitoneal injection of 100 μl of sterile PBS, n = 3; Group II: LPS, intraperitoneal injection of 100 μl of sterile PBS containing E. coli LPS (10 mg/kg), n = 5; Group III: GW-A2+LPS, intraperitoneal injection of 100 μl of sterile PBS containing E. coli LPS (10 mg/kg) and GW-A2 (10 mg/kg), n = 5. Group IV: AMP, intraperitoneal injection of 100 μl of sterile PBS containing GW-A2 (10 mg/kg), n = 3. Sera were collected for analysis at 4 h after LPS injection. Peritoneal lavages, lungs and livers were collected for analysis at 24 h after LPS injection.
# Lungs, livers and kidney were fixed in 10% formalin and paraffin-embedded, then 4 um thick sections were cut and stained with hematoxylin and eosin was described in detail previously. Scoring of the polymorphonuclear neutrophils (PMN) infiltration was determined by counting in 5 randomly sampled fields by light microscopy at a magnification of x400 evaluated by a pathologist in National Defense Medical Center (Taipei, Taiwan).
# [4] = system: iNOS and COX-2 in E. coli-LPS-activated RAW 264.7 macrophages; assay: iNOS and COX-2 expression (Western blot, quantitative real-time PCR); type: cell-based, mouse
# Method: as §2
# RAW 264.7 (2 × 10^6 in 2 ml of medium) were seeded in 6-cm dishes and then treated with or without LPS (0.1 μg/ml) in the absence or presence of AMP for 6 h. Total RNA was extracted from the treated cells by TRIzol reagent (Gibco, Grand Island, NY, USA) and the cDNA was prepared as described in detail previously. The mRNA expression levels of iNOS and COX-2 were measured by quantitative real-time PCR using the StepOne real-time PCR system (Applied Biosystems, Foster City, CA, USA). The primers used were: for mouse iNOS, forward 5- […]-3 and reverse 5-TGAACGAGGAGGGTGGTG-3; for mouse COX-2, forward 5-[…]-3 and reverse 5-[…]-3. The gene expression data are presented as the relative expression (LPS group as 100%) normalized to that of glyceraldehyde-3-phosphate dehydrogenase (GAPDH).
# [5] = i.p. E. coli LPS 10 mg/kg with GW-A2 10 mg/kg, n = 5, sera 4 h after LPS, ELISA, Fig 5A
# [6] = Western blot, E. coli LPS 0.1 μg/ml 24 h, Fig 1C
# [7] = quantitative real-time PCR, E. coli LPS 0.1 μg/ml 6 h, Fig 1D
sequence,measurement,setting,value
GAKYAKIIYNYLKKIANALW [GW-A2],NO inhibitory activity in Pam3CSK4-activated macrophages,[1]; Pam3CSK4 0.2 μg/ml,much lower than that in LPS-activated macrophages
same,NO inhibitory activity in CPS-activated macrophages,[1]; capsular polysaccharide 3 μg/ml,much lower than that in LPS-activated macrophages
same,NO inhibitory activity in PGN-activated macrophages,[1]; peptidoglycan 20 μg/ml,much lower than that in LPS-activated macrophages
same,"NO generation, GW-A2 added 0–8 h post LPS stimulation (therapeutic)","[2]; 2 μM GW-A2, Fig 3B",significantly inhibited
same,"NO generation, GW-A2 added 16 h after LPS stimulation","[2]; 2 μM GW-A2, Fig 3B",no effect
same,NO generation induced by E. coli-LPS,"[2]; RAW 264.7, 30 min peptide then 0.1 μg/ml E. coli LPS 24 h, Griess, Fig 1A",inhibited by GW-A2 in a dose-dependent manner
same,NO generation induced by Salmonella-LPS,"[2]; RAW 264.7, 30 min peptide then 0.1 μg/ml Salmonella LPS 24 h, Griess, Fig 1A",inhibited by GW-A2 in a dose-dependent manner
same,"LPS-induced NO generation, GW-A2 added with LPS or 24 h before LPS (prophylactic)","[2]; pre-incubation 0–24 h, then LPS 24 h, Fig 3A",significantly reduce
same,"LPS-induced NO generation, GW-A2 washed off before LPS stimulation","[2]; pre-incubation 1, 3, 6, 12 or 24 h, supernatant replaced, LPS 24 h, Fig 3C",not able to inhibit
same,IL-1β level in the sera,[3]; [5],significantly reduced
same,IL-6 level in the sera,[3]; [5],significantly reduced
same,TNF-α level in the sera,[3]; [5],significantly reduced
same,Infiltration of PMN into the lung and liver,"[3]; i.p. LPS 10 mg/kg with GW-A2 10 mg/kg, 24 h, H&E, 5 fields x400, Fig 5D, 5E",reduced
same,"Expression levels of iNOS, COX-2 and NLRP3 in the lung and liver","[3]; i.p. LPS 10 mg/kg with GW-A2 10 mg/kg, tissues 24 h after LPS, Western blot, Fig 5C",reduced
same,Adverse effects in GW-A2-injected mice,"[3]; mouse, in vivo, ip, 10 mg/kg",no adverse effects were observed
same,Behaviors of GW-A2-injected mice versus control mice,"[3]; mouse, in vivo, ip, 10 mg/kg",not significantly different
same,COX-2 protein expression level,[4]; [6],inhibited
same,iNOS protein expression level,[4]; [6],inhibited
same,"Inhibitory activity on COX-2 protein expression, 4 μM compared to 2 μM","[4]; Western blot, 4 μM of GW-A2 compared to 2 μM",lower inhibitory activity
same,COX-2 mRNA expression level,[4]; [7],inhibited
same,iNOS mRNA expression level,[4]; [7],inhibited
